{"source": "patent US20040138193A1", "about": "“Oestrogen fatty acid monoester as a hypolipidaemic and antidiabetic agent” (priority 2001, published 2004)", "test_system": "genetically obese adult female Zucker rats (genotype fa/fa)", "assay": "Plasma lipoproteinogram (polyacrylamide gel electrophoresis), obese rats", "format": "in vivo, rat", "conditions": "10 micromols per kg daily, 10 days", "method": "FIG. 2 is a lipoproteinogram analogous to the one of FIG. 1, but using obese rats (Zucker fa/fa).\nSince treatment with oleoyl-estrone deeply modifies the plasma lipids of rats, an experiment was carried out to determine whether the oral administration of oleoyl-estrone modifies the plasma lipidogram of lean and genetically obese rats. Two groups of animals were used: (1) normal-weight adult female Zucker rats (genotype Fa/?), and (2) genetically obese adult female Zucker rats (genotype fa/fa). In the first group one rat was killed to obtain a sample of blood (intact control); in the second group (obese rats), two intact controls were killed and their blood recovered. All the remaining rats were kept under standard housing conditions, with free access to food and water; the rats receivid a daily gavage of 0.2 ml of sunflower oil by means of a stomach tube; in three rats form each group, the oil was supplemented with enough oleoyl-estrone to achieve a daily dose of 10 micromols per kg of rat weight. After 10 days of treatment, the rats were killed, and their blood was recovered. All blood samples were centrifuged to obtain plasma; plasma proteins were analysed by means of polyacrylamide gel electroforesis (kit Lipofilm, Sebia, Issy les Molineaux, France), lipids were stained with Sudan black."}
{"smiles": "CCCCCCCC/C=C\\CCCCCCCC(=O)Oc1ccc2c(c1)CC[C@@H]1[C@@H]2CC[C@]2(C)C(=O)CC[C@@H]12", "note": "[oleoyl-estrone]", "values": [{"measurement": "lipoprotein pattern in lipoproteinogram", "value": "this same pattern is repeated, but there is an additional wide band between the LDL and VLDL zones"}]}
